US8820316B2, “Drug delivery apparatus” (Respironics Respiratory Drug Delivery (UK) Ltd, priority 2000, dated 2014)

Legend:
[1] = Budesonide study in 125 children with asthma using the system of the invention, asthma symptom score; assay type: in vivo; conditions: Improved Invention System, 200/50 μg; for daytime asthma symptom score, Baseline at entry / daytime asthma symptom score, End of Study: visual analogue range 0-3
Description: A study in 125 children with asthma using the system disclosed in this patent delivered three different regimes of a short duration (2-12 weeks) high delivered daily dose 200 μg followed by a long duration (12-22 weeks) low daily dose delivered dose 50 μg. Their treatment compliance was monitored electronically and their asthma symptoms by the parents using a visual analogue score. The treatment compliance over the study was 80/90% and the asthma scores reduced from a baseline of 1.23/1.27 to 0.23/0.43.

[2] = Budesonide study in 481 children with asthma using conventional nebulizers, asthma symptom score; assay type: in vivo; conditions: Conventional Nebuliser; for daytime asthma symptom score, End of Study: 12 weeks; for daytime asthma symptom score, End of Study / daytime asthma symptom score, Baseline at entry: visual analogue range 0-3
Description: The study in 481 children with asthma using conventional nebulizers delivered five different regimes. Nominal nebulizer doses were in the range 250/1000 μg daily and placebo over a 12 week period. Their asthma symptoms by the parents using a visual analogue scores, the asthma scores reduced from 1.21/1.33 to 0.87/0.93.

[3] = Sputum tobramycin concentration, conventional nebulizer versus high compliance system; assay type: in vivo, patients; conditions: human, inhaled
Description: To compare the performance of a conventional nebulizer and a high compliance system according to this invention using Tobramycin 8 patients received either 300 mg/5 ml via conventional nebulizer or 30 mg delivered dose via the high compliance system. The mean sputum tobramycin concentrations at 2 hours were 128 μg/g for the conventional nebulizer and 98 μg/g for the high compliance system. This study may indicate that an even lower dose may be acceptable to achieve the MIC level when delivered with a high compliance system such as disclosed in this invention, in the range 5-30 mg Tobramycin.

Pseudomonas aeriginosa = conditions: typically required, for 90% of organisms; to be maintained for 120 minutes; cited from earlier work
[4] = tested on: susceptible bacteria in the endobronchial space; conditions: 200-400 mg aminoglycoside in about 5 ml, 0.225% NaCl, pH 5.5-6.5, aerosolised (WO 96/12471); cited from earlier work
[5] = rhDNase response (FEV1) in adult CF patients who previously failed to respond; assay type: in vivo
Description: Mean change in FEV1 was 11.51%.

[6] = when starting rhDNase therapy; cited from earlier work

Molecule: CCCC1O[C@@H]2C[C@H]3[C@@H]4CCC5=CC(=O)C=C[C@]5(C)[C@H]4[C@@H](O)C[C@]3(C)[C@]2(C(=O)CO)O1 (stereo partly shown) [Budesonide]
- daytime asthma symptom score, Change ([1]; 2/22 weeks): −1
- daytime asthma symptom score, Baseline at entry ([1]; 2/22 weeks): 1.23
- daytime asthma symptom score, End of Study ([1]; 2/22 weeks): 0.23
- daytime asthma symptom score, Change ([1]; 6/18 weeks): −0.83
- daytime asthma symptom score, Baseline at entry ([1]; 6/18 weeks): 1.26
- daytime asthma symptom score, End of Study ([1]; 6/18 weeks): 0.43
- daytime asthma symptom score, Change ([1]; 12/12 weeks): −0.91
- daytime asthma symptom score, Baseline at entry ([1]; 12/12 weeks): 1.27
- daytime asthma symptom score, End of Study ([1]; 12/12 weeks): 0.36
- daytime asthma symptom score, Change ([2]; 250 μg once daily): −0.28
- daytime asthma symptom score, End of Study ([2]; 250 μg once daily): 0.93
- daytime asthma symptom score, Baseline at entry ([2]; 250 μg once daily): 1.21
- daytime asthma symptom score, Change ([2]; 250 μg twice daily): −0.4
- daytime asthma symptom score, End of Study ([2]; 250 μg twice daily): 0.91
- daytime asthma symptom score, Baseline at entry ([2]; 250 μg twice daily): 1.31
- daytime asthma symptom score, Change ([2]; 500 μg twice daily): −0.46
- daytime asthma symptom score, End of Study ([2]; 500 μg twice daily): 0.87
- daytime asthma symptom score, Baseline at entry ([2]; 500 μg twice daily): 1.33
- daytime asthma symptom score, Change ([2]; 1000 μg once daily): −0.37
- daytime asthma symptom score, End of Study ([2]; 1000 μg once daily): 0.91
- daytime asthma symptom score, Baseline at entry ([2]; 1000 μg once daily): 1.28

Molecule: NC[C@H]1O[C@H](O[C@H]2[C@H](O)[C@@H](O[C@H]3O[C@H](CO)[C@@H](O)[C@H](N)[C@H]3O)[C@H](N)C[C@@H]2N)[C@H](N)C[C@@H]1O [Tobramycin]
- concentration at 2 h ([3]; 30 mg delivered dose via the high compliance system): 98000 ng/g
- concentration at 2 h ([3]; 300 mg/5 ml via conventional nebulizer): 128000 ng/g
- MIC level (Pseudomonas aeriginosa): > 16 µg/mL
- suppresses and inhibits susceptible bacteria [4]: at least 95%

B1: rhDNase: Pulmozyme (recombinant, human DNase), mucoactive drug for cystic fibrosis lung disease (protein, UniProt P24855 23-282, looked up)
Deoxyribonuclease-1: LKIAAFNIQTFGETKMSNATLVSYIVQILSRYDIALVQEVRDSHLTAVGKLLDNLNQDAPDTYHYVVSEPLGRNSYKERYLFVYRPDQVSAVDSYYYDDGCEPCGNDTFNREPAIVRFFSRFTEVREFAIVPLHAAPGDAVAEIDALYDVYLDVQEKWGLEDVMLMGDFNAGCSYVRPSQWSSIRLWTSPTFQWLIPDSADTTATPTHCAYDRIVVAGMLLRGAVVPDSALPFNFQAAYGLSDQLAQAISDHYPVEVMLK
modifications: dornase alfa
- Mean change in FEV1 ([5]; 10 days, 0.25 ml/0.25 mg of the formulation, high compliance delivery system): 11.51%
- mean response to therapy, change in FEV1 ([5]; previous rhDNase therapy with conventional nebulizer devices): 4.17%
- patients showing a greater than 10% change in FEV1 over baseline [6]: Approximately 38%
